Legend:
[1] = tested on: acute nitroglycerin (NTG) migraine model in rats; test: Acute nitroglycerin (NTG) rat migraine model, periorbital von Frey threshold; assay type: in vivo; conditions: male Sprague Dawley rats, 10 mg/kg NTG i.p., 30 mg/kg test compound, 90 min; 50% periorbital threshold after compound / baseline x 100
Method: An acute nitroglycerin (NTG) model was used to assess migraine efficacy in rats (for a review see: Sureda-Gibert, P, Neurobiol Pain. 2022 August-December; 12: 100105). Briefly, male Sprague Dawley rats, 8-weeks old (Charles River Laboratories), were pair-housed in a 12-h light cycle room upon facility arrival and left to acclimate for a minimum of 72 h. Animals were provided standard rodent chow (PicoLab Rodent Diet, 5053) and water ad libitum. Following the acclimation period, rats underwent a single behavioral testing apparatus acclimation. Rats were left to freely move and habituate for a minimum of 20 min. The testing apparatus used was a Multiple Configuration Animal Enclosure (Ugo Basile, 37000-007) placed on a self-standing table with a mesh-perforated bottom.
Periorbital threshold was measured using the up-down method (Chaplan, S. R., et al., J Neurosci Methods, 1994 July; 53(1):55-63), in which von Frey filaments (Ugo Basile, 37450-275) of increasing forces (0.4-15 g) were applied to the periorbital region until an application of a filament evoked a response, typically indicated by a rapid withdrawal response or paw swipe to the periorbital region. Once a response was observed, four more readings were obtained following the first change of direction to determine the withdrawal threshold close to 50%. The 50% threshold was then calculated using the following formula: 50% threshold (g)=10^(X+kd)/10^4, where X=the value, in log units, of the final von Frey filament, k=tabular value for the response pattern, and d=the average increment, in log units, between von Frey filaments.
Following acclimation, a baseline assessment was performed, and rats were then randomized into balanced treatment groups using baseline periorbital threshold measurements. On the day of the experiment, rats (n=12/group) were weighed and administered 10 mg/kg NTG (2 mg/mL in 0.9% saline; Henry Schein, NDC-0517-4810-25) by intraperitoneal injection, immediately followed by their assigned compound treatment of either vehicle (0.25% methyl cellulose, 5% Tween 80, 0.02% sodium dodecyl sulfate (SDS) in Hanks' Buffered Salt Solution with Ca^2+ and Mg^2+), 10 mg/kg sumatriptan as a positive control (2 mg/mL in vehicle; Ambeed, A260899-1g) or 30 mg/kg test compound (10 mg/mL in vehicle).
Approximately 70 min post dosing, animals were placed in the behavioral testing apparatus and allowed to habituate to individual enclosures for a minimum of 20 min prior to von Frey assessment. Von Frey measurements were then recorded at 90 and 120. Upon final measurement, rats were immediately euthanized via CO2 asphyxiation followed by exsanguination. Blood was collected in lithium-heparin serum-separating tubes (BD, 365985) and processed for serum collection. Serum samples were then stored at −80° C.
Migraine efficacy (%) was calculated by dividing the 50% threshold (g) following administration of test compound by the baseline 50% threshold (g) and then multiplying by 100.

[2] = biological target: T1, human NK3 (Homo sapiens, UniProt P29371); test: FLIPR calcium assay in antagonist mode (NKB EC70 challenge); assay type: cell-based; conditions: stable cell line expressing human recombinant NK3; antagonist mode vs EC70 of NKB agonist
T1 sequence (P29371 1-465): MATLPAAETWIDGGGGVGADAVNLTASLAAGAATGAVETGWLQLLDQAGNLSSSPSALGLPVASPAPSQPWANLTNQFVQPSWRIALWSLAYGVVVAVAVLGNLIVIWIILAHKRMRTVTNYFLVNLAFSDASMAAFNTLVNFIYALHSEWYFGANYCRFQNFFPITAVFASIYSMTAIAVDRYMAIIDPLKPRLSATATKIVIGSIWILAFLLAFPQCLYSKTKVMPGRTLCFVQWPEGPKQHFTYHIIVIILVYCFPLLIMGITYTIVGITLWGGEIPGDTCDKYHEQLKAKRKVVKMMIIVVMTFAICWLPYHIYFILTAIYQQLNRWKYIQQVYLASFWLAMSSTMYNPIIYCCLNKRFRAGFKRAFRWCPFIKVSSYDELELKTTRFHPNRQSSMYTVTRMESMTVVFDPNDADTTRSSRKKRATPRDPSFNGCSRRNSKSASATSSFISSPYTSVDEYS
In short: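 Recombinant human NK3 stable cells loaded with Calcium 6 dye were given compound, read for 10 min, then challenged with NKB at its predetermined EC70 and read 10 min by FLIPR. The second peak minus baseline was normalized to 10 μM and 0 μM antagonist controls, and fitted for IC50 and efficacy.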

[3] = biological target: T2, P-glycoprotein (P-gp) (Homo sapiens, UniProt P08183); test: P-gp substrate assessment in MDR1-MDCK II cells; assay type: in vitro ADME; conditions: dog, MDCK-MDR1, pH 7.4
T2 construct: expressed in transfected cells; host or cells: MDR1-MDCK II
T2 sequence (P08183 whole entry): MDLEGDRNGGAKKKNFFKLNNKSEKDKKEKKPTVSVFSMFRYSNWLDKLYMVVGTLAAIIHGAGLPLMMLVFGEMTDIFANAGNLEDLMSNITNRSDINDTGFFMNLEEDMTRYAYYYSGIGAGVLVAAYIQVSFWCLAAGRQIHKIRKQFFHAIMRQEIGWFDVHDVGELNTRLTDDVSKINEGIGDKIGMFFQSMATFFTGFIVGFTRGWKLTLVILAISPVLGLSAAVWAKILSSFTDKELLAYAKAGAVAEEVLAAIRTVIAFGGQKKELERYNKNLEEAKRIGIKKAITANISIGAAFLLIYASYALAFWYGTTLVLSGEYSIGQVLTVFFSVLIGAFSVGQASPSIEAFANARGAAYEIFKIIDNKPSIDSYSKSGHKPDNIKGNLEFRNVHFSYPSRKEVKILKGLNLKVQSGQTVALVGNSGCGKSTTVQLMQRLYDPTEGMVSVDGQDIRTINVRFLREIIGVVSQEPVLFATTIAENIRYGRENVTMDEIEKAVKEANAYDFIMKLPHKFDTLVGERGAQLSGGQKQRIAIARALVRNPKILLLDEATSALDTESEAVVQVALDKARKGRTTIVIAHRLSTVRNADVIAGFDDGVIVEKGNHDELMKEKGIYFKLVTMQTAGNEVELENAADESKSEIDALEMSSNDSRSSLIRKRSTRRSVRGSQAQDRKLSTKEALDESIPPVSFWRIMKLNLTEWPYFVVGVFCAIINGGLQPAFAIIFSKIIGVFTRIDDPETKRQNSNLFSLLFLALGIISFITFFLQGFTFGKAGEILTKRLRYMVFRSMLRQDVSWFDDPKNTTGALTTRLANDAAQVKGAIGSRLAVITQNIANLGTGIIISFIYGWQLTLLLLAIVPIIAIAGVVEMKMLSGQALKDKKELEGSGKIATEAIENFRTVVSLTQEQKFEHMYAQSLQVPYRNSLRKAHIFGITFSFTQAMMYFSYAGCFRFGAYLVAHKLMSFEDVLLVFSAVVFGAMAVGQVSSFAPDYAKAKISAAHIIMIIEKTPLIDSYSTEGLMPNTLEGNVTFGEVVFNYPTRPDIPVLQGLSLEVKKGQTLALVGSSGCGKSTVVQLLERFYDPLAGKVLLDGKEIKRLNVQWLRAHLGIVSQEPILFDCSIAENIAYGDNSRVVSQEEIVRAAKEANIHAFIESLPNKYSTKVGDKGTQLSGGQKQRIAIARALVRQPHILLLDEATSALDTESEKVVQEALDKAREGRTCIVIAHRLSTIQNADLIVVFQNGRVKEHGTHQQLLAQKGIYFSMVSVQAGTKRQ
Method: MDR1-MDCK II from passage 5-35 were used for P-gp substrate assessment studies. Briefly, test compounds were diluted with transport buffer (HBSS with 10 mM HEPES, pH 7.4) from stock solution to a concentration of 2.00 μM (DMSO<1%) and applied to the apical or basolateral side of the cell monolayer. […] Compounds were quantified by LC/MS/MS analysis based on the peak area ratio of analyte/internal standard. The efflux ratio of each compound was determined according to the following equation: Efflux Ratio=Papp (BA)/Papp (AB).

IC50 [2] [nM]	efflux ratio at 150 min, 2 μM [3]	SMILES	Efficacy (%) [1] [%]
1.21	32.7	Cc1nn(C)cc1-c1ccccc1-c1nc2cc(C(=O)N[C@@H]3CO[C@H]4[C@@H]3OC[C@H]4O)ccn2c1Cl [Compound 7, 3-chloro-2-(2-(1,3-dimethyl-1H-pyrazol-4-yl)phenyl)-N-((3R,3aR,6R,6aR)-6-hydroxyhexahydrofuro[3,2-b]furan-3-yl)imidazo[1,2-a]pyridine-7-carboxamide]	81
4.22	–	Cn1cc(-c2cccc(F)c2-c2nc3cc(C(=O)N4CCC5(CC4)CC(C)(O)C5)ccn3c2Cl)cn1 [Compound 915, (3-chloro-2-(2-fluoro-6-(1-methyl-1H-pyrazol-4-yl)phenyl)imidazo[1,2-a]pyridin-7-yl)(2-hydroxy-2-methyl-7-azaspiro[3.5]nonan-7-yl)methanone]	92

Reference: patent US12281114B2, “NK3 modulators and uses thereof” (Kallyope, Inc., priority 2023, dated 2025)
